Results from patent US20050070570A1, “Novel potassium channels modulators” (4SC AG, priority 2003, published 2005).

What follows are molecules tested against BK channels (CHO cells permanently transfected with cloned hSlo, α-hSlo and β-bSlo) (Homo sapiens, UniProt Q12791) (assay: Em-Assay: fluorescence membrane potential assay with voltage sensitive dye DiBAC(4)3). Settings: ratio of the compound effect (50 μM) compared to the maximal effect of NS004 (25 or 50 μM).
Assay type: cell-based
Source text: The large conductance, voltage-dependent and Ca^2+-activated potassium channel BK is a potassium selective ion channel and belongs to the subfamily of KCa channels. Four BK alpha-subunits form a functional channel that can be regulated by intracellular Ca^2+ concentration, membrane voltage, and other mechanisms like phosphorylation states or beta subunits. To test the biological activity of the compounds, we applied two different techniques, a fluorescence based assay using a voltage sensitive dye (Em-Assay) as well as exploiting electrophysiological methods.
CHO cells permanently transfected with cloned hSlo (α-hSlo and β-bSlo), yielding typical BK potassium currents (Zhou et al., Pflügers Arch., 436: 725-734 (1998), were used for the evaluation of compound activity. Activation or inhibition of BK channels in these cells leads to a change of the electrochemical gradient causing a hyperpolarized or depolarised membrane potential, respectively.
To determine changes in the membrane potential of the cells we used the voltage sensitive dye DiBaC(4)3 (Molecular Probes) in a kinetic assay system using a fluorescent plate reader (Manning and Sontheimer, J. Neurosci. Meth., 91: 73-81 (1999). The anionic bis-oxonol DiBAC(4)3 is a voltage sensitive dye which partitions from the extracellular environment into the cell where it reversibly binds to intracellular proteins, a kinetic process depending on the membrane potential of the cell. At depolarised potentials (i.e. at a reduced K^+ efflux due to blocked K^+ channels) the dye accumulates in the cell leading to an increased fluorescence intensity, due to its increased fluorescence if bound to cellular proteins. At hyperpolarized potentials (i.e. at an increased K^+ efflux due to the opening of K^+ channels), the dye partitions out of the cell causing a decreased fluorescence intensity.
hslo transfected CHO cells where maintained in DMEM supplemented with 10% FCS, 250 μg/ml Geneticin, 100 μg/m Hygromycin, 1×HT-Supplement, and 1×Non-essential Amino Acids and cultured in a humidified CO2 incubator. After trypsination, cells where plated with a density of 5×10^4 cells per well on a clear 96-well plate and incubated for 24 h. Cells where washed once with PBS, once with PBS containing 20 mM HEPES (adjusted to pH 7.4 with NaOH) and 2 μM DiBAC(4)3 (DPBS-DiBAC solution). 180 μl of the dPBS-DiBAC solution was then added to the cells and the plate incubated for 30-60 min at 37° C. During this time the dye could partition into the cells and reach a certain steady-state distribution, depending on the resting membrane potential. Test and reference compounds were stored as DMSO stock solutions and diluted in dPBS-DiBAC solution to the desired concentration.
Fluorescence intensity (Ex.: 485 nm/Em.: 520 nm) of each well was detected in the plate reader (Fluostar, BMG) every 60 seconds. After recording the baseline fluorescence for 7 minutes, 20 μl test- and reference compounds were added and the fluorescence intensity was detected for additional 15 minutes. Background was subtracted, data values were normalized and expressed as a change in fluorescence intensity against time. The change in fluorescence intensity caused by the test compounds was evaluated, compared to the effect of the reference compound NS004, and the ratio was determined (see Table I).

Sequence of BK channels (CHO cells permanently transfected with cloned hSlo, α-hSlo and β-bSlo) (Q12791 whole entry): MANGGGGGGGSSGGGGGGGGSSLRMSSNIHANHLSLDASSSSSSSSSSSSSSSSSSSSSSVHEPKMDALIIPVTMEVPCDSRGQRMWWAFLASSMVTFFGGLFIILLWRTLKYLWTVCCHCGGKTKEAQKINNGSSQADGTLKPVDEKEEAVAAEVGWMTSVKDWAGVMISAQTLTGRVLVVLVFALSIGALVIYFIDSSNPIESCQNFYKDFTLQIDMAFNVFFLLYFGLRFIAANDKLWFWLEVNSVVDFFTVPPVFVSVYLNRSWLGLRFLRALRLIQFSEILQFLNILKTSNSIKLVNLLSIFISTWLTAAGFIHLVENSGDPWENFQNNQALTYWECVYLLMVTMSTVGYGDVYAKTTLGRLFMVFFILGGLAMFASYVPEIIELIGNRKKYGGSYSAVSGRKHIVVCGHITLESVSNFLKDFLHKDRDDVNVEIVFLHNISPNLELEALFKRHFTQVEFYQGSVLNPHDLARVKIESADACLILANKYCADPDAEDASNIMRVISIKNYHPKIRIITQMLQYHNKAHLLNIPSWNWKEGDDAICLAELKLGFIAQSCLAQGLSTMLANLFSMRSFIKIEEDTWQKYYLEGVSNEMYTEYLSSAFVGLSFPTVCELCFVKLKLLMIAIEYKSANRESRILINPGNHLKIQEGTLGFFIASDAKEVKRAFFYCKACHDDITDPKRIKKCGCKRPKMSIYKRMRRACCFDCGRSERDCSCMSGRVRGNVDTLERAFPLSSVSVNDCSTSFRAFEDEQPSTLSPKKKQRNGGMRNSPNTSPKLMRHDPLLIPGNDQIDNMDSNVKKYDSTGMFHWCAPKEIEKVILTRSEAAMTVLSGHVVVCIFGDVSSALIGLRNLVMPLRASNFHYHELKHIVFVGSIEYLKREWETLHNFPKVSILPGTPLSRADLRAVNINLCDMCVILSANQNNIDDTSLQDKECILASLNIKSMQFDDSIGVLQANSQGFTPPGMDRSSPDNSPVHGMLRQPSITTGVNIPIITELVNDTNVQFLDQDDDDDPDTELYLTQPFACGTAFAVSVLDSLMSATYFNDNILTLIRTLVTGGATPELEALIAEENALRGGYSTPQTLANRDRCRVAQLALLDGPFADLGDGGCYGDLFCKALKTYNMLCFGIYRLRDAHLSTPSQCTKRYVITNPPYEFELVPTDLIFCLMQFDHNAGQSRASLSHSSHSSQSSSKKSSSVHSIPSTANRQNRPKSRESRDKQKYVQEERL
Sequence of BK channels (CHO cells permanently transfected with cloned hSlo, α-hSlo and β-bSlo) (Q28067 whole entry partner): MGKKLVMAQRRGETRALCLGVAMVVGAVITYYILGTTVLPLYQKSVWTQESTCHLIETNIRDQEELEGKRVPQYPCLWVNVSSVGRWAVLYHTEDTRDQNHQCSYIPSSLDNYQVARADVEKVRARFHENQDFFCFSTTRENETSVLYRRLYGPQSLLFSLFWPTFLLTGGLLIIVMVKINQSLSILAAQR

Row | SMILES | Em effect
1 | COc1cc2c(c(OC)c1)C(c1cccc(OC(F)(F)F)c1)N(C(=O)c1ccc(OC(F)(F)F)cc1)CC2 (stereo not shown) [Compound 30, [6,8-Dimethoxy-1-(3-tifluoromethoxy-phenyl)-3,4-dihydro-1H-isoquinolin-2-yl](4-trifluoromethoxy-phenyl)-metanone] | + (0-1=+)
2 | COc1cc2c(c(OC)c1)C(C)N(S(=O)(=O)c1cccc([N+](=O)[O-])c1)CC2 (stereo not shown) [Compound 36, 6,8-Dimethoxy-1-methyl-2-(3-nitro-benzenesulfonyl)-1,2,3,4-tetrahydro-isoquinoline] | ++ (>1-1.5=++)
3 | COc1cc2c(c(OC)c1)C(c1ccc(O)cc1)N(C(=O)c1sc3ccccc3c1Cl)CC2 (stereo not shown) [Compound 24, (3-Chloro-benzo[b]thiophen-2-yl)-[1-(4-hydroxy-phenyl)-6,8-dimethoxy-3,4-dihydro-1H-iso-quinolin-2-yl]-methanone] | + (0-1=+)
4 | COc1cc2c(c(OC)c1)C(c1ccc(O)cc1)N(C(=O)CCC1CCCCC1)CC2 (stereo not shown) [Compound 23, 3-Cyclohexyl-1-[1-(4-hydroxy-phenyl)-6,8-dimethoxy-3,4-dihydro-1H-isoquinolin-2-yl]-propan-1-one] | + (0-1=+)
5 | COc1ccc(C(=O)N2CCc3cc(OC)cc(OC)c3C2c2cccc(OC(F)(F)F)c2)cc1 (stereo not shown) [Compound 31, [6,8-Dimethoxy-1-(3-trifluoromethoxy-phenyl)-3,4-dihydro-1H-isoquinolin-2-yl]-(4-methoxy-phenyl)-methanone] | + (0-1=+)
6 | COc1cc2c(c(OC)c1)C(c1cccc(OC(F)(F)F)c1)N(C(=O)c1ccc(NC(C)=O)cc1)CC2 (stereo not shown) [Compound 32, N-{4-[6,8-Dimethoxy-1-(3-trifluoro-methoxy-phenyl)-3,4-dihydro-1H-isoquinoline-2-carbonyl]-phenyl}-acetamide] | + (0-1=+)
7 | COc1cc2c(c(OC)c1)C(c1cccc(OC(F)(F)F)c1)N(C(C)=O)CC2 (stereo not shown) [Compound 29, 1-[6,8-Dimethoxy-1-(3-trifluoromethoxy-phenyl)-3,4-dihydro-1H-isoquinolin-2-yl]-ethanone] | ++ (>1-1.5=++)

The remaining lines, values ahead:

Row | Em effect | SMILES
8 | + (0-1=+) | COc1cc2c(c(OC)c1)C(c1ccc(-c3ccccc3)cc1)N(C(=O)c1ccc(C(F)(F)F)cc1)CC2 (stereo not shown) [Compound 4, (1-Biphenyl-4-yl-6,8-dimethoxy-3,4-dihydro-1H-isoquinolin-2-yl)-(4-trifluoromethylphenyl)-methanone]
9 | + (0-1=+) | COc1cc2c(c(OC)c1)C(c1ccc(O)cc1)N(C(=O)c1ccccc1OC(F)(F)F)CC2 (stereo not shown) [Compound 13]
10 | + (0-1=+) | COc1cc2c(c(OC)c1)C(c1ccc(-c3ccccc3)cc1)N(C(=O)c1ccc(C(C)(C)C)cc1)CC2 (stereo not shown) [Compound 6, (1-Biphenyl-4-yl-6,8-dimethoxy-3,4-dihydro-1H-isoquinolin-2-yl)-(4-tert-butyl-phenyl)-methanone]
11 | + (0-1=+) | COc1ccc(C(=O)N2CCc3cc(OC)cc(OC)c3C2c2ccc(-c3ccccc3)cc2)cc1 (stereo not shown) [Compound 1, (1-Biphenyl-4-yl-6,8-dimethoxy-3,4-dihydro-1H-isoquinolin-2-yl)-(4-methoxy-phenyl)-methanone]

The molecules below were run against BK currents (CHO cells permanently transfected with cloned α-hSlo and β-bSlo) (Homo sapiens, UniProt Q12791) (assay: Electrophysiological studies: whole-cell patch-clamp of BK currents). Settings: ratio of current increase after application of compound (20 μM) relative to the control current before compound application; steady-state.
Sequence of BK currents (CHO cells permanently transfected with cloned α-hSlo and β-bSlo) (Q12791 whole entry): as the sequence (Q12791 whole entry) above
Sequence of BK currents (CHO cells permanently transfected with cloned α-hSlo and β-bSlo) (Q28067 whole entry partner): as the sequence (Q28067 whole entry partner) above
Assay type: cell-based
Experimental: Electrophysiological Studies:
CHO cells permanently transfected with cloned α-hSlo and β-bSlo were maintained as described above and used for electrophysiological characterisation. The whole-cell configuration of the patch-lamp technique was used to determine the effect of modulators on BK currents in these cells. The cell line expressing functional BK currents (Zhou et al., Pflügers Arch. 436, p. 725 (1998)) were plated onto glass cover slips with a density of 1-5×10^4 cells/cover slip, incubated (37° C., 5% CO2) and used for patch-lamp experiments within 24-48 h. Cells were bathed in mammalian ringer solutions containing (in mM): 160NaCl, 4.5KCl, 2CaCl2, 1MgCl2, 10HEPES, adjusted to pH 7.4, 290-310 mOsm. The internal pipette solution contained (in mM): 160KCl, 2CaCl2, 1MgCl2, 10 HEPES, EGTA was added to reach a free [Ca^2+]internal=1×10^−6M, adjusted to pH 7.2, 290-310 mOsm. Borosilicate pipettes with a resistance of 2-3 MΩ were filled with the internal solution and mounted on an appropriate holder. […]
After addition of the compounds to the bath solution their modulating effect was determined by the increase or decrease of specific BK currents after reaching steady-state relative to the BK current before application of drugs (see Table II).

Row | Effect | SMILES
12 | + (<1.2 = +) | COc1cc2c(c(OC)c1)C(c1cccc(OC(F)(F)F)c1)N(C(=O)c1ccc(OC(F)(F)F)cc1)CC2 (stereo not shown) [Compound 30, [6,8-Dimethoxy-1-(3-tifluoromethoxy-phenyl)-3,4-dihydro-1H-isoquinolin-2-yl](4-trifluoromethoxy-phenyl)-metanone]
13 | ++ (>1.2 = ++) | COc1cc2c(c(OC)c1)C(C)N(S(=O)(=O)c1cccc([N+](=O)[O-])c1)CC2 (stereo not shown) [Compound 36, 6,8-Dimethoxy-1-methyl-2-(3-nitro-benzenesulfonyl)-1,2,3,4-tetrahydro-isoquinoline]
